Reference: PubChem BioAssay (NCI)
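Compound exposure: 48 hours, 5 concentrations, 96-well plates. TGI marks complete inhibition of growth.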

Tests used:
Experiment in all cases: inhibition of tumour cell growth, NCI panel, 48 h
[1] = tested on: UO-31 renal
[2] = tested on: HS 578T breast
[3] = tested on: SK-MEL-2 melanoma
[4] = tested on: SN12C renal
[5] = tested on: OVCAR-8 ovarian
[6] = tested on: HOP-92 NSCLC
[7] = tested on: CAKI-1 renal
[8] = tested on: OVCAR-3 ovarian
[9] = tested on: K-562 leukemia
[10] = tested on: MDA-MB-231 breast
[11] = tested on: RXF 393 renal

Row | SMILES | TGI [1] | TGI [2] | TGI [3] | TGI [4] | TGI [5] | TGI [6] | TGI [7] | TGI [8] | TGI [9] | TGI [10] | TGI [11]
1 | OCC(S)CS.[Bi] (configuration not stated) | 34.1 µM | 53.5 µM | 30 µM | 37.9 µM | 52.3 µM | 44.6 µM | 24.9 µM | 24.7 µM | > 100 µM | 43.2 µM | 26.2 µM
2 | Cc1ccsc1/C=N/Nc1cc(C)c2ccccc2n1 | 36.1 µM | 38.6 µM | 51.2 µM | 34 µM | 32.7 µM | 28.1 µM | 41.1 µM | 26.6 µM | 78.4 µM | 12.5 µM | 47.8 µM
3 | CCCCCCCCCCCCCCCCCCNc1nc(=O)n(C2CC(OP(=O)(O)OCC3OC(n4cc(F)c(=O)[nH]c4=O)CC3O)C(CO)O2)cc1F (configuration not stated) | 44.2 µM | > 100 µM | 71 µM | > 100 µM | 73.3 µM | > 100 µM | > 100 µM | > 100 µM | > 100 µM | > 100 µM | 63 µM
4 | Cc1oc2nc(N(C)C)n3cnnc3c2c1C | > 100 µM | > 100 µM | > 100 µM | > 100 µM | > 100 µM | > 100 µM | > 100 µM | > 100 µM | > 100 µM | > 100 µM | > 100 µM
5 | Nc1ccn(CC(O)c2cc3ccccc3[nH]2)c(=O)n1 (configuration not stated) | > 100 µM | > 100 µM | > 100 µM | > 100 µM | > 100 µM | > 100 µM | > 100 µM | > 100 µM | > 100 µM | > 100 µM | > 100 µM
6 | CCC(C)N1CN(c2ccccc2)C2(CCN(CCCC3(c4ccc(F)cc4)OCCO3)CC2)C1=O (configuration not stated) | 10.7 µM | 14.2 µM | 28.7 µM | 18.9 µM | 20.6 µM | 0.959 µM | > 68.3 µM | 29.8 µM | 34.3 µM | 26.2 µM | 26.5 µM
7 | CC(C)(CO)CNc1cc(Cl)nc(N)n1 | > 100 µM | > 100 µM | > 100 µM | > 100 µM | > 100 µM | > 100 µM | > 100 µM | > 100 µM | > 100 µM | > 100 µM | > 100 µM
8 | CCCCOc1ccc(S(=O)(=O)/N=C(\NO)Nc2ccc(Cl)cc2)cc1 | 24.6 µM | 51.3 µM | 31.6 µM | 31 µM | 36.2 µM | 19.3 µM | 23.2 µM | 28.4 µM | 41.2 µM | 33.9 µM | 30.2 µM
9 | O=C(O)C1CSC2(CCCN(Cc3ccccc3)C2)N1 (configuration not stated) | > 100 µM | > 100 µM | > 100 µM | > 100 µM | > 100 µM | > 100 µM | > 100 µM | > 100 µM | > 81.1 µM | > 100 µM | > 100 µM
10 | O=C1Nc2ccccc2SC1=C(C(=O)c1ccccc1)C(=O)c1ccccc1 | > 100 µM | > 100 µM | 67.1 µM | > 89.8 µM | > 100 µM | 99.9 µM | > 100 µM | 41.5 µM | > 100 µM | > 92.8 µM | > 100 µM
11 | CSc1c(C)n([O-])c2cc(Cl)c(Cl)cc2[n+]1=O | 30.4 µM | > 68.5 µM | 46 µM | 33.3 µM | 32.3 µM | 30.3 µM | 32.5 µM | 33.1 µM | 11.1 µM | 37.9 µM | 45.6 µM
12 | COc1ccc(/C=C(/c2ccc(OC)cc2)c2c(Cl)cc(Cl)c(/C(=C\c3ccc(OC)cc3)c3ccc(OC)cc3)c2N=Nc2ccccc2)cc1 | > 100 µM | > 100 µM | > 100 µM | > 100 µM | > 100 µM | > 100 µM | > 100 µM | > 100 µM | > 100 µM | > 100 µM | > 100 µM
